From paper PMC11078216, “Discovery of potent and selective activity-based probes (ABPs) for the deubiquitinating enzyme USP30” (RSC Chemical Biology, 2024)

What was measured:
UCHL1 = target: T1, UCHL1 (Homo sapiens, UniProt P09936); test: Cross-screening against unrelated DUB UCHL1; assay type: biochemical; details: Table S1, ESI
T1 sequence (P09936 1-223): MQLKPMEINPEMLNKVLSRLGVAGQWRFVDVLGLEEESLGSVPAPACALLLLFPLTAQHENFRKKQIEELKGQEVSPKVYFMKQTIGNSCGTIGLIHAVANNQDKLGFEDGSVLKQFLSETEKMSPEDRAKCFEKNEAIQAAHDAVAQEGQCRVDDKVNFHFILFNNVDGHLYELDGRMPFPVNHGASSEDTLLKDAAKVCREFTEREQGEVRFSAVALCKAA

USP30 = target: T2, USP30 (Homo sapiens, UniProt Q70CQ3); test: Biotin pulldown (Neutravidin enrichment) and immunoblotting for USP30; assay type: cell-based; details: HEK293T, 1 h; for extent of USP30 engagement and enrichment: 100 nM probe, pulldown; for probe concentration at which USP30 was enriched (pulldown) / probe concentration of maximal USP30 enrichment (pulldown): biotin pulldown and immunoblotting
T2 construct: We next determined cellular engagement of endogenous USP30 with IMP-2587 or IMP-2586; endogenous in cells; host or cells: HEK293T
T2 sequence (Q70CQ3 1-517): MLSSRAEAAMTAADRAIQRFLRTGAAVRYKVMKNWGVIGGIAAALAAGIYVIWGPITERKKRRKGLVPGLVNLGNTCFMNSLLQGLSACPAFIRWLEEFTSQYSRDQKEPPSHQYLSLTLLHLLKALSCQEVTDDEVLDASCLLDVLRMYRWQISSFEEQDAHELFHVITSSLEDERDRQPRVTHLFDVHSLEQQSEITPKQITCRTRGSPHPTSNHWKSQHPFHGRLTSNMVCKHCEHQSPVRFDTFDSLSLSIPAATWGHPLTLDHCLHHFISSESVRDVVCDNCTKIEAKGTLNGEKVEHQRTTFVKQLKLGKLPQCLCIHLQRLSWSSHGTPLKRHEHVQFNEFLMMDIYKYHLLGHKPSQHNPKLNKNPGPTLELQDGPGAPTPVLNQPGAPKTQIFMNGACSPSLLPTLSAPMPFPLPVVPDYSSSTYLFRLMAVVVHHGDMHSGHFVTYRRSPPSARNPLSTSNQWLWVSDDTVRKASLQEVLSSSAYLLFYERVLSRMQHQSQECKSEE
Method: We next determined cellular engagement of endogenous USP30 with IMP-2587 or IMP-2586. […] In-cell concentration-dependent competition by IMP-2587 and IMP-2586 for USP30 were confirmed below 100 nM probe (Fig. 2b and c), whilst engagement of an exemplar unrelated DUB, UCHL1, occurred only at a much higher concentration (30 000 nM). We hypothesise that incomplete modification of USP30 by HA-Ub-VME is likely due to limited retention of USP30 activity in cell lysates, which have likely had the USP30 transmembrane domain compromised, highlighting the potential utility of a small molecule USP30 ABP applicable directly in intact cells. Direct USP30 target engagement by IMP-2587 and IMP-2586 was confirmed in HEK293T cells following 1 h probe treatment followed by cell lysis and CuAAC bio-orthogonal ligation to capture reagent azido-TAMRA-biotin (AzTB) for IMP-2587 or alkyne-TAMRA-biotin for IMP-2586 (Fig. 3a).[27] […] This unspecific background labelling is presumably due to the previously reported higher off-target CuAAC reactivity of an alkyne-bearing capture reagent, applied here due to incorporation of an azide tag in IMP-2586.[28] Moreover, the labelling of USP30 was further confirmed by biotin pulldown and immunoblotting. […]
d) Live cell probe incubation, lysate click chemistry and precipitation 6-well HEK293T cells were incubated with media containing compounds ABP 2 and ABP 4 at indicated concentrations for 1 h at 37 °C. The cells were washed with PBS and lysed with lysis buffer (50 μL (1% (v/v) Triton X-100, 0.1% (w/v) sodium dodecyl sulfate (SDS), EDTA-free complete protease inhibitor cocktail (1×, Roche) in PBS on ice for 10 min. The lysates were scraped and transferred to corresponding Lo-Bind Eppendorfs. Each lysate was sonicated for 1 minute, and the samples centrifuges at 5,000 x g at 4 °C for 5 minutes to pellet insoluble cellular debris. The supernatant was collected, and protein concentration was determined using the DC Protein Assay (Bio-Rad) as per manufacturer’s instructions, and normalised to lowest concentrated sample (e.g. 1 mg/mL, using lysis buffer). The following “click mixture” was prepared separately, preparing 6 μL for every 100 μL of […]
Capture reagent (AzRB/AzT for ABP 2, YnT/YnB for ABP 4 10 mM in DMSO, 1 vol; final concentration […]
CuSO4 (50 mM in water, 2 vol; final concentration in reaction 1 mM)
TCEP (50 mM in water, 2 vol; final concentration in reaction 1 mM)
TBTA (10 mM in DMSO, 1 vol; final concentration in reaction 100 µM)
The click mixture was vortexed and incubated at room temperature for 2 min before 6 μL of the mixture was added to every 100 μL of lysate. The reaction mixtures were shaken at room temperature for 1 h before being quenched with EDTA (500 mM in H2O) to a final concentration of 10 mM.
Proteins were precipitated by adding H2O (1 vol), MeOH (2 vol) and CHCl3 (0.5 vol), vortexing briefly then centrifuging at 17,000 × g for 5 min. The top H2O/MeOH layer was discarded and the middle layer of protein pellet and lower CHCl3 layer retained. The suspension was washed with MeOH (300 μL), and sonicated to break up the pellet. The proteins were pelleted by centrifugation at 10,000–17000 × g for 5–10 min or until a compact pellet was formed. The protein pellet was washed once more with MeOH (1 mL). The pellet was resuspended by sonicating and completely dissolving in 1% (w/v) SDS in PBS (to 5 mg/mL protein) before being made up to 1 mg/mL protein with PBS.
The lysate samples (10-20 μg) were mixed with 4× Laemmli sample loading buffer (250 mM Tris -HCl pH 6.8, 30% (v/v) glycerol, 10% (w/v) SDS, 0.05% (w/v) bromophenol blue) supplemented with 20% v/v β-mercaptoethanol (BME) and boiled for 10 min at 95 °C. The resulting protein samples were separated according to the protocol in section 3.2.c. Gel were imaged on a Typhoon imager (GE Healthcare; λEx 532 nm, λEm 575 nm for TAMRA. For protein loading quantification, gels were stained with Coomassie blue staining solution overnight, rinsed with water and imaged on an ImageQuant™ […]

SMILES	activity against UCHL1 (cross-screening) (UCHL1)	extent of USP30 engagement and enrichment (USP30)	probe concentration at which USP30 was enriched (pulldown) (USP30) [nM]	probe concentration of maximal USP30 enrichment (pulldown) (USP30) [nM]
N#CN1CC[C@@H](NC(=O)c2cc(-c3ccccc3Oc3ccc(N=[N+]=[N-])cc3)n[nH]2)C1 [IMP-2586]	no activity	almost complete engagement and enrichment	10	100
C#Cc1cccc(-c2cc(NC(=O)CC3CCN(C#N)C3)on2)c1 (centres unmarked) [IMP-2587]	no activity	almost complete engagement and enrichment	10	100
